Source: article PMC9045377, “CpxA Phosphatase Inhibitor Activates CpxRA and Is a Potential Treatment for Uropathogenic Escherichia coli in a Murine Model of Infection” (Microbiology Spectrum, 2022)
Where “and” joins values, the source holds several entries; their conditions need not be identical. Identical values can stand only once.

How the values were obtained:
CpxRA [1] = experiment: E. coli CpxR β-galactosidase reporter assay for CpxRA activation (reporter strain PAD282); type: cell-based, Escherichia coli
Protocol: (§1) E. coli strain CFT073 and its derivative CFT073ΔcpxA::cat were described previously and maintained on Luria broth (LB) plates at 37°C ([30]). The E. coli PcpxP′-lacZ reporter strain, PAD282, was the gift of Thomas Silhavy (Princeton University, Princeton, NJ, USA) and was maintained on TB plates at 37°C ([31]). HepG2 hepatocellular carcinoma cells were the gift of Andy Yu (Indiana University, Indianapolis, IN) and were grown in RPMI […] medium (Gibco) containing 10% fetal calf serum (HyClone) and 1 mM sodium pyruvate (Sigma) at 37°C with 5% CO2 as described ([31]).
Compounds 1 and 6 were purchased from ChemDiv and Aurum Pharmatech, respectively ([31], [32]). Compound 26 was synthesized and purified by the Duerfeldt laboratory as described ([32]). All compounds were dissolved in DMSO prior to use in this assay. The EC50 values for each compound were determined by measuring the β-galactosidase activity of the reporter strain PAD282 as previously reported ([31]). Briefly, PAD282 was cultured overnight in TB medium with 0.4% glucose and diluted into a 384-well plate, which contained the compounds in concentrations ranging from 0 to 160 μM, and incubated for 5 h at 37°C with no shaking. The All-in-One β-galactosidase reagent (Pierce) was added and the OD420, OD550, and OD600 of the wells were measured by a SpectraMax 384 plate reader. EC50 values were determined from 3 separate experiments done in triplicate using GraphPad Prism software using a nonlinear fit model. In some experiments, EC50 values were determined in the presence and absence of 10% human AB serum (Sigma).

[2] = Toxicity / clinical signs in mice; type: in vivo, female CBA/J mice
Protocol: We tested our initial hit, compound 1 ([31]) (Fig. 1), for toxicity in a murine model using criteria described in Materials and Methods. […] To test compound 1 for efficacy, female CBA/J mice were transurethrally inoculated with ∼1 × 10^8 CFU of UPEC strain CFT073; 12 h later, mice were treated with 100 mg/kg compound 1 (n = 10) or the vehicle control (n = 5) s.c. twice a day for 3 days and then sacrificed 4 h after the last dose. No effect was seen on the recovery of E. coli CFT073 in the urine, bladder, or kidneys (see Fig. S1 in the supplemental material). As compound 1 lacked efficacy, we aimed to improve the scaffold to enhance potency and eliminate the nitro group liability ([32]).
We developed a high-performance liquid chromatography-tandem mass spectrometry (HPLC-MS/MS) assay to measure compound 6 with a lower limit of quantification of 1 ng/mL. Single-dose PK parameters of compound 6 were determined in female CBA/J mice (n = 15) given 100 mg/kg s.c. dissolved in the vehicle. Blood was obtained from groups of 3 mice 1, 2, 4, 8, and 24 h postinjection.
Animal experiments were conducted according to the guidelines of the Indiana University School of Medicine Institutional Animal Care and Use Committee by the IU Simon Comprehensive Cancer Center In Vivo Therapeutics Core, a component of the Indiana Clinical Translational Science Institute. For the pilot toxicity study with compound 1, 4- to 6-week-old CBA/J female mice were obtained from Jackson Laboratory (Bar Harbor, ME) and were treated with compound 1 or the vehicle control twice a day for 3 days as described in the results. […] Toxicity was determined by the following criteria: deteriorating health-hunched posture, lack of grooming, failure to thrive, failure to eat and drink for >48 h, rapid loss of 15 to 20% body weight, inactivity with hunched posture, loss of righting reflex and inability to maintain upright posture, loss of general body condition with spine becoming visible, and dehiscence of wounds and/or evidence of infection at injection sites not responsive to veterinary treatment.

HepG2 cells = experiment: Cytotoxicity by LDH release in HepG2 cells; type: cell-based; conditions: 0 to 160 μM
Protocol: as §1
The cytotoxicity of compound 6 for HepG2 cells was determined by LDH release after incubation with the compound in concentrations ranging from 0 to 160 μM for 5 h and 24 h exactly as described ([31]). The IC50 was determined from quadruplicate experiments by the GraphPad Prism 6 software using a nonlinear fit model.

CpxRA [3] = test system: CpxRA; design: method as in PMID 31104993; conditions: β-galactosidase reporter assay in E. coli; read-out: mean 50% effective concentration (EC50), CpxRA activation; cited from earlier work
CFT073 = experiment: Growth of CFT073 in human urine (OD600); type: cell-based, Escherichia coli; conditions: 150 μM, 5 h
UPEC strain CFT073 = type: in vivo, Escherichia coli (in female CBA/J mice); conditions: compound 26 trial
[4] = infected mice, 100 mg/kg s.c. at 12, 36, 60 h

Question: For NC1CCCc2c1[nH]c1ccc(F)cc21 (stereo not shown) [compound 6], which “effect of 10% human AB serum on activity in the reporter assay” value (CpxRA [1]; 10% human AB serum present vs absent) is on record?
Answer: not affected

Question: And the “fold lower EC50 (more potent) than compound 1” value (CpxRA [1]; reporter assay)?
Answer: 3.2 fold and 3 fold

Question: And the “concentration for peak activation of CpxR” value (CpxRA [1]; reporter assay, Fig. S2)?
Answer: 10 µM

Question: What about the “clinical signs during efficacy trial” value [2, 4] of the same compound?
Answer: None of the compound 6-treated animals exhibited decreased activity, tremors, or squinting

Question: And the “clinical signs of toxicity at 24 h” value ([2]; single dose 100 mg/kg s.c.)?
Answer: No mice showed clinical signs of toxicity

Question: What about the tremors ([2]; single dose 100 mg/kg s.c., n = 15, one mouse from 30 min (severe at 2 h), six mice after 1 h) of the same compound?
Answer: slight tremors

Question: What about the “clinical signs, all treated mice” value ([2]; single dose 100 mg/kg s.c., from 10 min after injection to the 8-h time point) of the same compound?
Answer: slightly decreased activity and squinting

Question: What about the “IC50, LDH release” value (HepG2 cells; 5 h incubation) of the same compound?
Answer: could not be calculated

Question: What about the IC50 (HepG2 cells; Homo sapiens, 24 h incubation) of the same compound?
Answer: > 33 µM

Question: And the EC50 (CpxRA [3])?
Answer: 7.7 µM

Question: For N[C@@H]1CCCc2c1[nH]c1cc(F)c(F)cc21 [compound 26], which “fold lower EC50 (more potent) than compound 6” value (CpxRA [1]; reporter assay) is on record?
Answer: ~7 fold

Question: What about the “signs of toxicity during efficacy trial” value [2, 4] of the same compound?
Answer: None of the compound 26-treated animals exhibited signs of toxicity

Question: And the “effect on bacterial growth” value (CFT073)?
Answer: does not inhibit bacterial growth

Question: And the “OD600 of treated CFT073, mean ± SD” value (CFT073; 5 independent experiments)?
Answer: 0.52 ± 0.2

Question: And the EC50 (CpxRA [3])?
Answer: 1.1 µM

Question: And the “recoverable CFU in bladder vs vehicle-treated mice inoculated with CFT073ΔcpxA::cat” value (UPEC strain CFT073)?
Answer: significantly lower

Question: And the “recoverable CFU in kidneys vs vehicle-treated mice inoculated with CFT073ΔcpxA::cat” value (UPEC strain CFT073)?
Answer: significantly lower

Question: What about the “recoverable CFU in urine vs vehicle-treated mice inoculated with CFT073ΔcpxA::cat” value (UPEC strain CFT073) of the same compound?
Answer: trended toward having a lower CFU

Question: And the “recoverable CFU in urine vs CFT073-inoculated vehicle-treated controls” value (UPEC strain CFT073; 8 mice/group, compound 26 100 mg/kg s.c. at 12, 36, 60 h, ciprofloxacin 2.5 mg/kg/dose s.c. at 12, 24, 36, 48, 60 h, sacrifice 64 h)?
Answer: significantly lowered

Question: What about the “recoverable CFU in bladder vs CFT073-inoculated vehicle-treated controls” value (UPEC strain CFT073; same regimens) of the same compound?
Answer: trended toward lowering

Question: And the “recoverable CFU in kidneys vs CFT073-inoculated vehicle-treated controls” value (UPEC strain CFT073; same regimens)?
Answer: trended toward lowering

Question: And the “recoverable CFU in urine, bladder and kidneys vs ciprofloxacin-treated group” value (UPEC strain CFT073; all P > 0.9)?
Answer: no significant differences
